Nine molecules from patent US9115092B2, “Substituted quinazoline and pyrido-pyrimidine derivatives” (Asana Biosciences, LLC, priority 2010, dated 2015) can be followed below.

For one assay, the system named is PC3 cells. As to the kind of experiment: XTT assay for cell viability, PC3 cells. Format: cell-based, human. The conditions noted are these: Homo sapiens, PC-3, cell viability. The method, then:
Using a commercial kit from Sigma Aldrich (Catalog #X34251) and following its protocol, PC3 cells in the log phase of growth were employed and seeded at an optimal density of 1000 cell/well on to 96 well plates and incubated for 24 h followed by the addition of compounds of formula (I) in serial dilutions. Compound dilutions were made in DMSO. The cells were incubated with the compounds of formula (I) for 96 h and XTT tetrazolium dye (Sigma, USA) was subsequently added and incubated at 37° C. After the color formation, absorbance was measured at 465 nm in a Spectramax® Gemini spectrophotometer. EC50 values were calculated using a sigmoidal dose response curve fit in GraphPad Prism® v5 software. The tested compounds of formula (I) which caused inhibition of PC3 cell proliferation as determined by this assay protocol are shown in Table 2.
(Formazan colour is commonly taken as a measure of viable cells.)

For assay [1], the target named is T1, PI3Kα (wild-type), P110/P85α (Homo sapiens, UniProt P42336).
T1 construct: made in house; host or cells: SF9 insect cells
Briefly: PI3 Kinase TR-FRET assay, PI3Kα (wild-type). The assay is classed as biochemical. The method, boiled down:
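TR-FRET read-out of PIP3 formation via biotin-PIP3 displacement (665/615 nm ratio) gave IC50 curves. Enzyme: 5 ng wild-type P110/P85α from Sf9 cells, 60 min RT with compound and PIP2 (MgCl2 40 mM, DTT 5 mM), then 30 min RT kinase reaction at 10 μM ATP and 10 μM PIP2.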
(In TR-FRET formats the signal depends on donor and acceptor labels being close together.)

Another assay has as its target T2, mTOR kinase (Homo sapiens, UniProt P42345).
T2 construct: purchased Millipore, USA
As to the kind of experiment: mTOR kinase TR-FRET assay. Particulars: read-out: mTO R. Format: biochemical. Put shortly: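 TR-FRET read-out (340 nm excitation, 615/665 nm emission) of Thr389 phosphorylation of a ULight-labeled p70 S6K peptide (50 nM) by mTOR, 20 μM ATP, 60 min room temperature after 60 min compound preincubation. Buffer HEPES pH 7.5 with MnCl2, EGTA; IC50 by sigmoidal dose-response.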

Structures are written as SMILES. Bounds are passed on as bounds.

T1 sequence (P42336 whole entry): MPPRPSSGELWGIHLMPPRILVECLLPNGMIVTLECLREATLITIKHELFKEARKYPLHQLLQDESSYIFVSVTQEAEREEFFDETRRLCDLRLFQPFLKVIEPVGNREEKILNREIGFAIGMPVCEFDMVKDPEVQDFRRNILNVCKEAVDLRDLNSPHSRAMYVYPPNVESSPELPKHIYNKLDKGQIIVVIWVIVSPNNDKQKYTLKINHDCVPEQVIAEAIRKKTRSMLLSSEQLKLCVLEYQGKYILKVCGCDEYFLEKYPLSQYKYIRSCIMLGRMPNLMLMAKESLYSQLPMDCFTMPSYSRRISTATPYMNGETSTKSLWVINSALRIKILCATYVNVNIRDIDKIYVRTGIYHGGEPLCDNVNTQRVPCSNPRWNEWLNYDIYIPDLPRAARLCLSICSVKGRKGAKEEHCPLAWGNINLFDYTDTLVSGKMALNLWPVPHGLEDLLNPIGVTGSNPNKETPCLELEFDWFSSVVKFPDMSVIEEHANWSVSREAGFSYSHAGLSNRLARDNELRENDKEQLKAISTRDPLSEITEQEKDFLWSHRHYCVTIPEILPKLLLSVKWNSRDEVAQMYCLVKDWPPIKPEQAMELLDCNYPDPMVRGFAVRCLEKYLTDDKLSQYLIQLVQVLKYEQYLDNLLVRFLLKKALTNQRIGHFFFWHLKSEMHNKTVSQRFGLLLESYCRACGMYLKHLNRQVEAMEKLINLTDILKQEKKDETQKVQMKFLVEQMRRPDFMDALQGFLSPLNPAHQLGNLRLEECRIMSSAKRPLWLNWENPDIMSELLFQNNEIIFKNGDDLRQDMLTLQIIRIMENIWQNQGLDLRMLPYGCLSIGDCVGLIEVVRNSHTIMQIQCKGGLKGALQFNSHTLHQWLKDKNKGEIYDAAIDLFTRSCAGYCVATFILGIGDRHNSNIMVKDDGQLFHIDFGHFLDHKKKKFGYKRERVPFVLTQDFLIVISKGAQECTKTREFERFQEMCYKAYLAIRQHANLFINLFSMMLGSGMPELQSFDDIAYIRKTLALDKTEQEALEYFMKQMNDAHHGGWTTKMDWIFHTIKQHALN
T1 sequence (P27986 whole entry partner): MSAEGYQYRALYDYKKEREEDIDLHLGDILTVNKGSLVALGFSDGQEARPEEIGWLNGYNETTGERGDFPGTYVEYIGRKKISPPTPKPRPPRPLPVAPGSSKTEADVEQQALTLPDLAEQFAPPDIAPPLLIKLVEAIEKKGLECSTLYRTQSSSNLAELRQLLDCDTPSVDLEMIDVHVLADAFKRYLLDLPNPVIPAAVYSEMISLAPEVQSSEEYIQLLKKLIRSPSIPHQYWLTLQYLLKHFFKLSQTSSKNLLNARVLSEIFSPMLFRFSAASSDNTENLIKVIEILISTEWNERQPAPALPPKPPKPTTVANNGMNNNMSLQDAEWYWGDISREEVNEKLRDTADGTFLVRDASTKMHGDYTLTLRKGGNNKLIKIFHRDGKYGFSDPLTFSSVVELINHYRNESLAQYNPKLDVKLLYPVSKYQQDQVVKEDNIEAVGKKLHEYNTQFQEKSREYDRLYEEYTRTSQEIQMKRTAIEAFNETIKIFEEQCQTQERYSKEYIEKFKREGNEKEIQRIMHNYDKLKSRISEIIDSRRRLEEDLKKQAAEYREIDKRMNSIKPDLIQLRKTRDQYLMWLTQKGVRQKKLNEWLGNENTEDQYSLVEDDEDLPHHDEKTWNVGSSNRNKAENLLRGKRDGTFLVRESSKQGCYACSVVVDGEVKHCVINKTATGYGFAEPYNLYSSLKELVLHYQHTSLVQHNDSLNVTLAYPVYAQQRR

On to `CC(=O)Nc1ccc(NC(=O)Nc2ccc(-c3nc(N4CCOCC4)c4ccc(-c5ccc(C)o5)cc4n3)cc2)cc1` [Example 17, N-(4-(3-(4-(7-(5-methylfuran-2-yl)-4-morpholino-quinazolin-2-yl)phenyl)ureido)phenyl)acetamide], for which the figures for the IC50 (with PC3 cells; in assay [1]; on mTOR kinase) were 100 to 500 nM, 50 to 200 nM and 50 to 200 nM, respectively.

As for `CC(O)c1ccc(-c2ccc3c(N4CCOCC4)nc(-c4ccc(NC(=O)Nc5ccc(C(=O)N(C)C)cc5)cc4F)nc3c2)o1` (stereo not drawn) [Example 275, 4-(3-(3-fluoro-4-(7-(5-(1-hydroxyethyl)furan-2-yl)-4-morpholino-quinazolin-2-yl)phenyl)ureido)-N,N-dimethyl-benzamide], the IC50 in the assay on PC3 cells was 201 to 10000 nM; in assay [1], 50 to 200 nM; on mTOR kinase it was less than 50 nM.

For the molecule `CN(C)C(=O)c1ccc(NC(=O)Nc2ccc(-c3nc(N4CCOCC4)c4cc(F)c(-c5cncnc5)cc4n3)c(F)c2)cc1` [Example 256, 4-(3-(3-fluoro-4-(6-fluoro-4-morpholino-7-(pyrimidin-5-yl)quinazolin-2-yl)phenyl)ureido)-N,N-dimethyl-benzamide], the IC50 in the assay with PC3 cells fell in the range of 201 to 10000 nM; in assay [1] it was 50 to 200 nM; at mTOR kinase, 50 to 200 nM.

For `CN(C)C(=O)c1ccc(NC(=O)Nc2ccc(-c3nc(N4CCOCC4)c4ccc(-c5cnc6ccccc6c5)cc4n3)cc2)cc1` [Example 59, N,N-dimethyl-4-{3-[4-(4-morpholin-4-yl-7-quinolin-3-yl-quinazolin-2-yl)-phenyl]-ureido}-benzamide], the IC50 is less than 100 nM with PC3 cells, less than 50 nM in assay [1] and less than 50 nM at mTOR kinase.

Turning to `COc1ncc(-c2ccc3c(N4CCOCC4)nc(-c4ccc(NC(=O)Nc5ccc(C(=O)N(C)C)c(F)c5)cc4)nc3c2)cn1` [Example 257, 2-fluoro-4-(3-(4-(7-(2-methoxypyrimidin-5-yl)-4-morpholino-quinazolin-2-yl)phenyl)ureido)-N,N-dimethyl-benzamide], the IC50 in the assay with PC3 cells is 201 to 10000 nM; in assay [1], less than 50 nM; at mTOR kinase, less than 50 nM.

On to `CN(C)C(=O)c1ccc(NC(=O)Nc2ccc(-c3nc(N4CCOCC4)c4ccc(-c5cccnc5F)cc4n3)cc2)cc1` [Example 21, 4-(3-{4-[7-(2-fluoro-pyridin-3-yl)-4-morpholin-4-yl-quinazolin-2-yl]-phenyl}-ureido)-N,N-dimethyl-benzamide], for which the IC50 in the assay on PC3 cells was 100 to 500 nM; in assay [1] it was 50 to 200 nM; on mTOR kinase, less than 50 nM.

As to `CN(C)C(=O)c1ccc(NC(=O)Nc2ccc(-c3nc(N4CCOCC4)c4ncc(-c5cccc(S(C)(=O)=O)c5)cc4n3)cc2)cc1` [Example 39, 4-(3-{4-[7-(3-methanesulfonyl-phenyl)-4-morpholin-4-yl-pyrido[3,2-d]pyrimidin-2-yl]-phenyl}-ureido)-N,N-dimethyl-benzamide], the IC50 with PC3 cells is less than 100 nM; in assay [1], less than 50 nM; on mTOR kinase, less than 50 nM.

Consider `NC1CCN(C(=O)c2ccc(NC(=O)Nc3ccc(-c4nc(N5CCOCC5)c5ccc(-c6ccco6)cc5n4)cc3)cc2)C1` (stereo in doubt) [Example 234, (S)-1-(4-(3-aminopyrrolidine-1-carbonyl)phenyl)-3-(4-(7-(furan-2-yl)-4-morpholino-quinazolin-2-yl)phenyl)urea], for which the IC50 in the assay on PC3 cells was 201 to 10000 nM; in assay [1] it was less than 50 nM; on mTOR kinase, less than 50 nM.

For `CN(C)C(=O)c1ccc(NC(=O)Nc2ccc(-c3nc(N4CCOCC4)c4ccc(-c5ccc(CO)o5)cc4n3)c(F)c2)cc1` [Example 274, 4-(3-(3-fluoro-4-(7-(5-(hydroxymethyl)furan-2-yl)-4-morpholino-quinazolin-2-yl)phenyl)ureido)-N,N-dimethyl-benzamide], the values for the IC50 (in the assay on PC3 cells; in assay [1]; at mTOR kinase) were 201 to 10000 nM, less than 50 nM and 50 to 200 nM, respectively.
